What all share (type): cell-based
For one experiment, the system named is rat CRF2R α receptor. As to the kind of experiment: cAMP agonism at rat CRF2R α receptor in A7R5 rat aortic smooth muscle cells (Example 8). The following applies: cAMP HTRF, A7R5 rat aortic smooth muscle cell line, 0% HSA. The method in brief:
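Potency (EC50) is the concentration reaching half-maximal activation, with responses scaled so that 1000 nM urocortin 2 equals 100%. Intracellular cAMP was quantified by homogeneous time-resolved fluorescence at 665/620 nm, 1 h after lysis-buffer reagents. Compound stimulation lasted 30 min at room temperature on 2000 IBMX-treated (2 mM) cells per well in HEPES-buffered HBSS.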
(In TR-FRET formats the signal depends on donor and acceptor labels being close together.)

The target of a further experiment is T1, CRF1R receptor (Homo sapiens, UniProt P34998).
T1 construct: host or cells: CHO-K1 clone 2
T1 sequence (P34998 24-415): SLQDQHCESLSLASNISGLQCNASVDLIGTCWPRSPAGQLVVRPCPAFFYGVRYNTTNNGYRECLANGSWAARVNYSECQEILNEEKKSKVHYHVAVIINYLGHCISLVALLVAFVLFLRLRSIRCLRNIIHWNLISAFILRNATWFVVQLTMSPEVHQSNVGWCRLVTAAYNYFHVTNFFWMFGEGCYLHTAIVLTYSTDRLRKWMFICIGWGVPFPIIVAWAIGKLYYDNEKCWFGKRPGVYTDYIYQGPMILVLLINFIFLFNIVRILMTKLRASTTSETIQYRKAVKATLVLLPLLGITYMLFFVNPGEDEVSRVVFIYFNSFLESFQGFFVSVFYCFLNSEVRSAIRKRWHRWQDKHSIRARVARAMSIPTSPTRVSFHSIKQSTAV
As to the kind of experiment: cAMP activity at anti-target CRF1R, CRF1R-overexpression CHO cell line (Example 9). The following applies: for EC50: 0% HSA. Summed up: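 Using thawed CRF1R-overexpressing CHO cells at 2000 per well, compound is applied for 30 min at RT in HBSS/HEPES buffer with IBMX. Cellular cAMP content is determined via HTRF, and percent activity is calculated against 1000 nM UCN2 defined as 100%.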

For another experiment, the target named is T2, human CRF2α receptor (Homo sapiens, UniProt Q13324).
T2 construct: expressed in transfected cells; host or cells: TeloHEAC
T2 sequence (Q13324 1-411): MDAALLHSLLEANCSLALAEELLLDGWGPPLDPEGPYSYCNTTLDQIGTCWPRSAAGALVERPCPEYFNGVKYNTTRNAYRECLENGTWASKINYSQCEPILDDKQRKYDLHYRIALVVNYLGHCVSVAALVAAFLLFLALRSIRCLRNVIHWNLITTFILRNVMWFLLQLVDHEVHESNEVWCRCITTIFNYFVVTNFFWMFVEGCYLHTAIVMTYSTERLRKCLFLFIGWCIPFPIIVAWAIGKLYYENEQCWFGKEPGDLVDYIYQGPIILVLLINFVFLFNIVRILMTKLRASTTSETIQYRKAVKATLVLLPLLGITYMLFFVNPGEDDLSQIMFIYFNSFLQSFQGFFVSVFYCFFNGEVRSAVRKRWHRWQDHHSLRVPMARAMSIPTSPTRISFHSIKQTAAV
As to the kind of experiment: cAMP agonism at human CRF2 α receptor in TeloHEAC cells (Example 7). The following applies: cAMP HTRF, TeloHEAC cells stably expressing human CRF2 α, 0% HSA; read-out: EC50 [nM], 0% HSA. Summed up: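 Cryopreserved cells are thawed, washed and resuspended in IBMX-containing (2 mM) HEPES-buffered HBSS with or without 0.1% HSA. Compound incubation runs 30 min at room temperature with 2000 cells per well, then cAMP is measured by time-resolved FRET. Potency is expressed as EC50, efficacy relative to urocortin 2 at 1000 nM.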

The mark [1] stands for this setting: CRF1R-overexpression CHO cell line.
The mark [2] stands for this setting: CRF1R-overexpression CHO cell line, read-out: Emax (%).

The structures appear in SMILES notation. Where two headings read alike, the source gives them in different places. Starred links: 1 amine or outer side, 2 acyl side, 3 side chain; linkers in the order of their positions; H or OH if unused. Non-standard residues stand in square brackets, D forms with d. Residues, ends and D or L forms follow the SMILES beside them. Groups on a side chain read outwards from the residue. *: point of attachment. C20 diacid = O=C(O)CCCCCCCCCCCCCCCCCCC(=O)*; C18 diacid = O=C(O)CCCCCCCCCCCCCCCCC(=O)*; γGlu = O=C(O)[C@H](CCC(=O)[*:2])N[*:1]; AEEA = NCCOCCOCC(=O)O; Aib = CC(C)(N)C(=O)O

For four molecules, EC50 and Emax results are on record in patent US12679878B2, “CRF2 receptor agonists and their use in therapy” (SANOFI, priority 2020, dated 2026).

The EC50 is the concentration needed to bring the measured effect to its halfway point. The term Emax denotes the size of the effect at its maximum, as opposed to the concentration needed. As to `CC[C@H](C)[C@H](NC(=O)[C@H](CCC(N)=O)NC(=O)[C@H](CCCCNC(=O)COCCOCCNC(=O)COCCOCCNC(=O)CC[C@H](NC(=O)CCCCCCCCCCCCCCCCCCC(=O)O)C(=O)O)NC(=O)[C@H](CC(C)C)NC(=O)[C@H](CCCCN)NC(=O)[C@@H](NC(=O)[C@@H]1CCCN1C(=O)[C@@H](NC(=O)[C@H](CC(=O)O)NC(=O)[C@H](CC(C)C)NC(=O)[C@H](CO)NC(=O)[C@H](CC(C)C)NC(=O)[C@@H](NC(=O)[C@@H](N)Cc1ccccc1)[C@@H](C)O)C(C)C)[C@@H](C)CC)C(=O)N[C@@H](CC(C)C)C(=O)N[C@@H](CC(C)C)C(=O)N[C@@H](CCCCN)C(=O)N[C@@H](CCC(N)=O)C(=O)N[C@@H](CCC(N)=O)C(=O)N[C@@H](CCCCN)C(=O)N[C@@H](CCC(N)=O)C(=O)N[C@@H](CCCCN)C(=O)N[C@@H](CCCCN)C(=O)N[C@@H](CCC(=O)O)C(=O)N[C@@H](CCCNC(=N)N)C(=O)N[C@@H](CCC(N)=O)C(=O)N[C@@H](CCC(N)=O)C(=O)N[C@@H](C)C(=O)N[C@@H](CCC(=O)O)C(=O)N[C@H](C(=O)N[C@@H](CC(N)=O)C(=O)N[C@H](C(=O)N[C@@H](CCC(N)=O)C(=O)N[C@@H](CC(C)C)C(=O)N[C@@H](CC(C)C)C(=O)N[C@@H](CCC(=O)O)C(=O)N[C@@H](CCCNC(=N)N)C(=O)N[C@H](C(N)=O)C(C)C)C(C)C)[C@@H](C)O` [compound 62] (H-FTLSLDVPIKLK([AEEA-AEEA-γGlu-C20 diacid])QILLKQQKQKKERQQAETNVQLLERV-NH2), the concentration giving a half-maximal response (EC50) amounted to 2.9 nM in the experiment on rat CRF2R α receptor and 0.8 nM at human CRF2α receptor. On CRF1R receptor (CHO), the Emax amounted to 2.28%.

In the case of `CC[C@H](C)[C@H](NC(=O)[C@H](CCC(N)=O)NC(=O)[C@H](CCCCNC(=O)COCCOCCNC(=O)COCCOCCNC(=O)CC[C@H](NC(=O)CCCCCCCCCCCCCCCCCCC(=O)O)C(=O)O)NC(=O)[C@H](CC(C)C)NC(=O)[C@H](CCCCN)NC(=O)[C@@H](NC(=O)[C@@H]1CCCN1C(=O)[C@@H](NC(=O)[C@H](CC(=O)O)NC(=O)[C@H](CC(C)C)NC(=O)[C@H](CO)NC(=O)[C@H](CC(C)C)NC(=O)[C@@H](NC(=O)[C@@H](N)Cc1ccccc1)[C@@H](C)O)C(C)C)[C@@H](C)CC)C(=O)N[C@@H](CC(C)C)C(=O)N[C@@H](CC(C)C)C(=O)N[C@@H](CCC(=O)O)C(=O)N[C@@H](CCC(N)=O)C(=O)N[C@@H](CCC(N)=O)C(=O)N[C@@H](CCCCN)C(=O)N[C@@H](CCC(N)=O)C(=O)N[C@@H](CCCCN)C(=O)N[C@@H](CCCCN)C(=O)N[C@@H](CCC(=O)O)C(=O)N[C@@H](CCCNC(=N)N)C(=O)N[C@@H](CCC(N)=O)C(=O)N[C@@H](CCC(N)=O)C(=O)N[C@@H](C)C(=O)N[C@@H](CCC(=O)O)C(=O)N[C@H](C(=O)N[C@@H](CC(N)=O)C(=O)N[C@H](C(=O)N[C@@H](CCC(N)=O)C(=O)N[C@@H](CC(C)C)C(=O)N[C@@H](CC(C)C)C(=O)N[C@@H](CCC(=O)O)C(=O)N[C@@H](CCCNC(=N)N)C(=O)N[C@H](C(N)=O)C(C)C)C(C)C)[C@@H](C)O` [compound 63] (H-FTLSLDVPIKLK([AEEA-AEEA-γGlu-C20 diacid])QILLEQQKQKKERQQAETNVQLLERV-NH2), the EC50 in the experiment with rat CRF2R α receptor is 4.73 nM; on CRF1R receptor (setting [1]), more than 1000 nM; on human CRF2α receptor, 0.63 nM. For the same molecule, on CRF1R receptor (setting [2]), the Emax came to 4.68%.

Turning to `CC[C@H](C)[C@H](N)C(=O)N[C@H](C(=O)N[C@@H](CC(C)C)C(=O)N[C@@H](CO)C(=O)N[C@@H](CC(C)C)C(=O)N[C@@H](CC(=O)O)C(=O)N[C@H](C(=O)N1CCC[C@H]1C(=O)N[C@H](C(=O)N[C@@H](CCCCN)C(=O)N[C@@H](CC(C)C)C(=O)N[C@@H](CCCCNC(=O)COCCOCCNC(=O)COCCOCCNC(=O)CC[C@H](NC(=O)CCCCCCCCCCCCCCCCC(=O)O)C(=O)O)C(=O)N[C@@H](CCCCN)C(=O)NC(C)(C)C(=O)N[C@@H](CC(C)C)C(=O)N[C@@H](CC(C)C)C(=O)N[C@@H](CCC(=O)O)C(=O)N[C@@H](CCC(N)=O)C(=O)N[C@@H](CCC(=O)O)C(=O)N[C@@H](CCCNC(=N)N)C(=O)N[C@@H](CCC(N)=O)C(=O)N[C@@H](CCCCN)C(=O)N[C@@H](CCCCN)C(=O)N[C@@H](CCC(N)=O)C(=O)N[C@@H](CCCNC(=N)N)C(=O)N[C@@H](CCC(=O)O)C(=O)N[C@@H](CCC(N)=O)C(=O)N[C@@H](C)C(=O)N[C@@H](CCC(=O)O)C(=O)N[C@H](C(=O)N[C@@H](CC(N)=O)C(=O)N[C@@H](CCCCN)C(=O)N[C@@H](CCC(N)=O)C(=O)N[C@H](C(=O)N[C@@H](CC(C)C)C(=O)N[C@@H](C)C(=O)N[C@@H](CCC(N)=O)C(=O)N[C@H](C(N)=O)C(C)C)[C@@H](C)CC)[C@@H](C)O)[C@@H](C)CC)C(C)C)C(C)C` [compound 69] (H-IVLSLDVPIKLK([AEEA-AEEA-γGlu-C18 diacid])K[Aib]LLEQERQKKQREQAETNKQILAQV-NH2; N-terminus assumed), the EC50 was 7.33 nM in the experiment on rat CRF2R α receptor, more than 1000 nM at CRF1R receptor (setting [1]) and 0.61 nM on human CRF2α receptor. Further, the Emax on CRF1R receptor (setting [2]) stood at 0.02%.

Regarding `CC[C@H](C)[C@H](N)C(=O)N[C@H](C(=O)N[C@@H](CC(C)C)C(=O)N[C@@H](CO)C(=O)N[C@@H](CC(C)C)C(=O)N[C@@H](CC(=O)O)C(=O)N[C@H](C(=O)N1CCC[C@H]1C(=O)N[C@H](C(=O)N[C@@H](CCCCN)C(=O)N[C@@H](CC(C)C)C(=O)N[C@@H](CCCCNC(=O)COCCOCCNC(=O)COCCOCCNC(=O)CC[C@H](NC(=O)CCCCCCCCCCCCCCCCC(=O)O)C(=O)O)C(=O)N[C@@H](CCC(N)=O)C(=O)N[C@H](C(=O)N[C@@H](CC(C)C)C(=O)N[C@@H](CC(C)C)C(=O)N[C@@H](CCC(=O)O)C(=O)N[C@@H](CCC(N)=O)C(=O)N[C@@H](CCC(=O)O)C(=O)N[C@@H](CCCNC(=N)N)C(=O)N[C@@H](CCC(N)=O)C(=O)N[C@@H](CCCCN)C(=O)N[C@@H](CCCCN)C(=O)N[C@@H](CCC(N)=O)C(=O)N[C@@H](CCCNC(=N)N)C(=O)N[C@@H](CCC(=O)O)C(=O)N[C@@H](CCC(N)=O)C(=O)N[C@@H](C)C(=O)N[C@@H](CCC(=O)O)C(=O)N[C@H](C(=O)N[C@@H](CC(N)=O)C(=O)NC(C)(C)C(=O)N[C@@H](CCC(N)=O)C(=O)N[C@H](C(=O)N[C@@H](CC(C)C)C(=O)N[C@@H](C)C(=O)N[C@@H](CCC(N)=O)C(=O)N[C@H](C(N)=O)C(C)C)[C@@H](C)CC)[C@@H](C)O)[C@@H](C)CC)[C@@H](C)CC)C(C)C)C(C)C` [compound 70] (H-IVLSLDVPIKLK([AEEA-AEEA-γGlu-C18 diacid])QILLEQERQKKQREQAETN[Aib]QILAQV-NH2; N-terminus assumed), the figures for the EC50 with rat CRF2R α receptor, at CRF1R receptor (setting [1]) and on human CRF2α receptor were 8.72 nM, more than 1000 nM and 0.91 nM, respectively. The Emax on CRF1R receptor (setting [2]) is 3.03%.
